Measurements reported in ChEMBL document CHEMBL4376896, “Synthesis of Novel Potent Archazolids: Pharmacology of an Emerging Class of Anticancer Drugs” (J Med Chem, 2020).
Values after ≈ are worked out from the molar mass of the structure shown. Active and inactive are the calls of the source. The calls are words filed in the database; no cut-off is given here.

Columns and labels:
[1] = Half life in Sprague-Dawley rat liver microsomes at 1 uM; format: ADME, Microsome
[2] = Kinetic aqueous solubility of the compound; format: physicochemical; conditions: buffer; read-out: Kinetic_solubility
[3] = molecular target: T1, Cytochrome P450 3A4 (Homo sapiens, UniProt P08684); experiment: Inhibition of recombinant human CYP3A4 at 100 nM; format: ADME; conditions: recombinant enzyme, 0.1 µM
T1 sequence (P08684 whole entry): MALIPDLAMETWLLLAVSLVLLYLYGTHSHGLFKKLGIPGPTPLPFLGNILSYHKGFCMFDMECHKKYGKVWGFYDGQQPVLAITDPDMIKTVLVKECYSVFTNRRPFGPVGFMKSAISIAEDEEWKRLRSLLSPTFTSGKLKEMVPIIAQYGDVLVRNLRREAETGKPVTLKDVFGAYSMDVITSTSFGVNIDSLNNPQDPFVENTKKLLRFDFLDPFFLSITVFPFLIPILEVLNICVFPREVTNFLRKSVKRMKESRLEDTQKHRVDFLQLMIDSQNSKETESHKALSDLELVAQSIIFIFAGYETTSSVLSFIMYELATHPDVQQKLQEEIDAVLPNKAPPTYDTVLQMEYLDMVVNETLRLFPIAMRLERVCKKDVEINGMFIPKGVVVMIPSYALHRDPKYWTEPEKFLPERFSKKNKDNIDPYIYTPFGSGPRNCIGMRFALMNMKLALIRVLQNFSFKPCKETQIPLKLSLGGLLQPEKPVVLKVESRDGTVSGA

[4] = Stability in CD1 mouse liver microsomes assessed as drug degradation at 1 uM measured within 15 mins; format: ADME, Microsome; conditions: read-out: Drug degradation
[5] = molecular target: Procathepsin L (Homo sapiens) (UniProt P07711); experiment: Inhibition of cathepsin L (unknown origin) assessed as reduction in pNA release using chromogenic Z-Phe-Arg-pNA substrate measured over 1 hr by spectrophotometry
Sequence of Procathepsin L (Homo sapiens) (P07711 114-333 limits assumed): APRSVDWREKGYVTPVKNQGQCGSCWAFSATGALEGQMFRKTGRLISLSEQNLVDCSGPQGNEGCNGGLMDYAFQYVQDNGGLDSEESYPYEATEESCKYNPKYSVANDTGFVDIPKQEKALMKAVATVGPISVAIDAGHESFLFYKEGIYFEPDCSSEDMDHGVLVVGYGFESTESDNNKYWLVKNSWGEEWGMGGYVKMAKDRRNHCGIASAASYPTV

[6] = Stability in Sprague-Dawley rat liver microsomes assessed as drug degradation at 1 uM measured within 15 mins; format: ADME, Microsome; conditions: read-out: Drug degradation
[7] = Half life in human liver microsomes at 1 uM; format: ADME, Microsome
[8] = molecular target: Cytochrome P450 2D6 (Homo sapiens, UniProt P10635); experiment: Inhibition of recombinant human CYP2D6 at 100 nM; format: ADME; conditions: recombinant enzyme, 0.1 µM
Sequence of Cytochrome P450 2D6 (P10635 whole entry): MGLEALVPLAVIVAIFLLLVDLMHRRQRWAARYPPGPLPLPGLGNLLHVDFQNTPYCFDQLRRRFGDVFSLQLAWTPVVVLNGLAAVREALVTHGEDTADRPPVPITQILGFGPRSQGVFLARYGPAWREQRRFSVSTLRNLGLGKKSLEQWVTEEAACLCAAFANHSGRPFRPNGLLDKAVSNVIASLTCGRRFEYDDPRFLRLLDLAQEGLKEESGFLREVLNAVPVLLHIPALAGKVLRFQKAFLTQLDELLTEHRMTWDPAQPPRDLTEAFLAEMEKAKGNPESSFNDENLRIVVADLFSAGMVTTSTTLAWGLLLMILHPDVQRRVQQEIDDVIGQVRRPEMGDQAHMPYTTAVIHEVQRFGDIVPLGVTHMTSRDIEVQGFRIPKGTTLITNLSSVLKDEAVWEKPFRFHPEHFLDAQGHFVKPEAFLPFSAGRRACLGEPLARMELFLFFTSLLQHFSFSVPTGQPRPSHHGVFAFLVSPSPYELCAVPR

[9] = molecular target: T2, Cytochrome P450 2C19 (Homo sapiens, UniProt P33261); experiment: Inhibition of recombinant human CYP2C19 at 100 nM; format: ADME; conditions: recombinant enzyme, 0.1 µM
T2 sequence (P33261 whole entry): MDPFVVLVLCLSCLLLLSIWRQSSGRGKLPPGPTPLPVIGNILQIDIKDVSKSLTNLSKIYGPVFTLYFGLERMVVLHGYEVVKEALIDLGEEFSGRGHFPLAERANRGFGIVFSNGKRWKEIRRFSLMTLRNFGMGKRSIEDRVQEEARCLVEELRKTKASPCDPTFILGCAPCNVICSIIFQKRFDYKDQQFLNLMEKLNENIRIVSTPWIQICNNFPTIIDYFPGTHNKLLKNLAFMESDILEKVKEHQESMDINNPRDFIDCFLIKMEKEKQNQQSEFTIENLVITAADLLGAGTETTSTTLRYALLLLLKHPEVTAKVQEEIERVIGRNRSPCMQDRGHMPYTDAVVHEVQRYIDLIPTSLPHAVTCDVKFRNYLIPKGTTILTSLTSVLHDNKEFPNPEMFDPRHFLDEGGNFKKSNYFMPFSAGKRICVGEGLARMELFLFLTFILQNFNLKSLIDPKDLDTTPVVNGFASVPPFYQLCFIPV

[10] = molecular target: T2, Cytochrome P450 2C19; experiment: Inhibition of recombinant human CYP2C19 at 1 uM; format: ADME; conditions: recombinant enzyme
[11] = molecular target: Chymotrypsin (Homo sapiens) (UniProt Q99895+P17538+P40313+Q6GPI1); experiment: Inhibition of chymotrypsin (unknown origin) assessed as reduction in pNA release using chromogenic Suc-Ala-Ala-Pro-Phe-pNA substrate measured over 12.5 mins by spectrophotometry; format: protein assay
[12] = Intrinsic clearance in Sprague-Dawley rat liver microsomes at 1 uM; format: ADME, Microsome; conditions: read-out: CLH
[13] = Stability in human liver microsomes assessed as drug degradation at 1 uM measured within 15 mins; format: ADME, Microsome; conditions: read-out: Drug degradation
[14] = cells; conditions: Homo sapiens, 1321-N1, 72 h
Description: Growth inhibition of human 1321N1 cells incubated for 72 hrs by MTT assay

[15] = molecular target: T3, Cytochrome P450 2C9 (Homo sapiens, UniProt P11712); experiment: Inhibition of recombinant human CYP2C9 at 100 nM; format: ADME; conditions: recombinant enzyme, 0.1 µM
T3 sequence (P11712 whole entry): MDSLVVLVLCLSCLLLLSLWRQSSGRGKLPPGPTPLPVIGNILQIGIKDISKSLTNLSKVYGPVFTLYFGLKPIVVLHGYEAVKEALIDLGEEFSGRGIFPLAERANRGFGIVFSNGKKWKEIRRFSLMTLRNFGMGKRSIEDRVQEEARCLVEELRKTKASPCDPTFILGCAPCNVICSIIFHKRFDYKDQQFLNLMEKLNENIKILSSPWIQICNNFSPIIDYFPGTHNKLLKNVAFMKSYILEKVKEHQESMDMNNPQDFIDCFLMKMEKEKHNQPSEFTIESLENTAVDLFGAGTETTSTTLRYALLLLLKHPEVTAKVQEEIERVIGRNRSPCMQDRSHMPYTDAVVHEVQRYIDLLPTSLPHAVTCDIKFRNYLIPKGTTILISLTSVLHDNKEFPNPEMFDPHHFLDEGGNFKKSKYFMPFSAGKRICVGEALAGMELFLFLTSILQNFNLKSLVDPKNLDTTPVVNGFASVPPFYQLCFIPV

[16] = molecular target: Trypsin (Homo sapiens) (UniProt P07477+P07478+P35030); experiment: Inhibition of trypsin (unknown origin) assessed as reduction in pNA release using chromogenic Suc-Ala-Ala-Pro-Arg-pNA substrate measured over 10 mins by spectrophotometry; format: protein assay
[17] = molecular target: T4, Adenosine receptor A3 (Homo sapiens, UniProt P0DMS8); experiment: Displacement of [3H]PSB-11 from human A3 adenosine receptor expressed in CHO cell membranes incubated for 60 mins by liquid scintillation counting method
T4 sequence (P0DMS8 whole entry): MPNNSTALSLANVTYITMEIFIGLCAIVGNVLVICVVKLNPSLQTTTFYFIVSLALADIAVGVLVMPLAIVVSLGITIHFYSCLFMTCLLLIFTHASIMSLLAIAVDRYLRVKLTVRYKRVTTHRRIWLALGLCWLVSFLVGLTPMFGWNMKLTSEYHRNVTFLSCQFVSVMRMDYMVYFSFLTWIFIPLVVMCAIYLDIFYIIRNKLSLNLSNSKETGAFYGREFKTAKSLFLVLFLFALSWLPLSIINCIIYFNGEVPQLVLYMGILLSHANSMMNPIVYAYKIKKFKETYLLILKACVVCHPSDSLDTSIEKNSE

[18] = molecular target: T3, Cytochrome P450 2C9; experiment: Inhibition of recombinant human CYP2C9 at 1 uM; format: ADME; conditions: recombinant enzyme
[19] = molecular target: Cytochrome P450 2B6 (Homo sapiens, UniProt P20813); experiment: Inhibition of recombinant human CYP2B6 at 100 nM; format: ADME; conditions: recombinant enzyme, 0.1 µM
Sequence of Cytochrome P450 2B6 (P20813 whole entry): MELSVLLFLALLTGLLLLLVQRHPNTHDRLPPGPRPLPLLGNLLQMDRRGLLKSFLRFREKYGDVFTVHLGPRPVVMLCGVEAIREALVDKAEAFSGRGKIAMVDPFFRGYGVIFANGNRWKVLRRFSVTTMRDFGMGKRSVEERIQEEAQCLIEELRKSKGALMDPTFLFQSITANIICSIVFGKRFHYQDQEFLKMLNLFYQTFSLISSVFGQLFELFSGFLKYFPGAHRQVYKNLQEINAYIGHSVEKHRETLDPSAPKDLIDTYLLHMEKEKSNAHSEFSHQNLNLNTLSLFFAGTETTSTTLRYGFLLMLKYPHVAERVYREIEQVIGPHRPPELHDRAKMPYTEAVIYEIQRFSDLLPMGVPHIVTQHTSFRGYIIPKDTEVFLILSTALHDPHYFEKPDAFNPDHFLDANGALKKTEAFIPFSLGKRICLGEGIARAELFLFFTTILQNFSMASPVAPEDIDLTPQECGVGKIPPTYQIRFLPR

[20] = Intrinsic clearance in human liver microsomes at 1 uM; format: ADME, Microsome; conditions: read-out: CLH
[21] = Intrinsic clearance in CD1 mouse liver microsomes at 1 uM; format: ADME, Microsome; conditions: read-out: CLH
[22] = molecular target: Cytochrome P450 1A2 (Homo sapiens, UniProt P05177); experiment: Inhibition of recombinant human CYP1A2 at 100 nM; format: ADME; conditions: recombinant enzyme, 0.1 µM
Sequence of Cytochrome P450 1A2 (P05177 whole entry): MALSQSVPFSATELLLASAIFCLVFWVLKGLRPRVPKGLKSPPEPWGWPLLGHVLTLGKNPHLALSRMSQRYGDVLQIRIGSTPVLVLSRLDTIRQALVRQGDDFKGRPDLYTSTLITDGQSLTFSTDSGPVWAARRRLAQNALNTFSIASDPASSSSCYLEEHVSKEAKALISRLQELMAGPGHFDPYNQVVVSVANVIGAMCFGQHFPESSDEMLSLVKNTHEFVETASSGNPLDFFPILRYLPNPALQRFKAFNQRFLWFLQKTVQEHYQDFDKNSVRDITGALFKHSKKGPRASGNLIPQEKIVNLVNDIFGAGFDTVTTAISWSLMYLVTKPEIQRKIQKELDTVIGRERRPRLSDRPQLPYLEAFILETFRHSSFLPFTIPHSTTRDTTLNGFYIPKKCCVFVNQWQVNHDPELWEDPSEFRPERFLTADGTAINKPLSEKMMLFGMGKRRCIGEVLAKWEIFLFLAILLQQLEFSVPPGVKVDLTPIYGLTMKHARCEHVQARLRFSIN

[23] = Permeability in human Caco2 cells at 10 uM; format: ADME, cell-based; conditions: caco-2, 10 µM
[24] = molecular target: Cathepsin B (Homo sapiens) (UniProt P07858); experiment: Inhibition of cathepsin B (unknown origin) assessed as reduction in pNA release using chromogenic Z-Arg-Arg-pNA substrate measured over 1 hr by spectrophotometry
[25] = Half life in CD1 mouse liver microsomes at 1 uM; format: ADME, Microsome
[26] = molecular target: T5, P2X purinoceptor 3 (Homo sapiens, UniProt P56373); experiment: Inhibition of human P2X3 assessed as reduction in agonist-induced intracellular Ca2+ concentration pre-incubated for 30 mins before agonist addition by calcium 5 dye based fluorescence assay; format: cell-based
T5 sequence (P56373 whole entry): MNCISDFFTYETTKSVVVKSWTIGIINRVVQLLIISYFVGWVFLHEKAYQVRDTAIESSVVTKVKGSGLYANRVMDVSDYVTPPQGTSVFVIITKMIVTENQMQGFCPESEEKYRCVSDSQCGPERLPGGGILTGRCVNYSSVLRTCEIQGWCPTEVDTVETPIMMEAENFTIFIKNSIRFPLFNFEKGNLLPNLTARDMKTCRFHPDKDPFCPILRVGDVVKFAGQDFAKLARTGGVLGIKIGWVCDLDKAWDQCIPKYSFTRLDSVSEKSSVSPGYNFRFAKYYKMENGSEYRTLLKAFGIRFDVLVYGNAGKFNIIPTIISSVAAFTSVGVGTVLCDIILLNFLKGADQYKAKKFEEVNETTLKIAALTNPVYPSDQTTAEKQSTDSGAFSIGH

[27] = molecular target: T1, Cytochrome P450 3A4; experiment: Inhibition of recombinant human CYP3A4 at 1 uM; format: ADME; conditions: recombinant enzyme
[28] = molecular target: T6, Neutrophil elastase (Homo sapiens, UniProt P08246); experiment: Inhibition of human leukocyte elastase assessed as reduction in pNA release using chromogenic MeO-Suc-Ala-Ala-Pro-Val-pNA substrate measured over 10 mins by spectrophotometry; conditions: read-out: IC50
T6 sequence (P08246 whole entry): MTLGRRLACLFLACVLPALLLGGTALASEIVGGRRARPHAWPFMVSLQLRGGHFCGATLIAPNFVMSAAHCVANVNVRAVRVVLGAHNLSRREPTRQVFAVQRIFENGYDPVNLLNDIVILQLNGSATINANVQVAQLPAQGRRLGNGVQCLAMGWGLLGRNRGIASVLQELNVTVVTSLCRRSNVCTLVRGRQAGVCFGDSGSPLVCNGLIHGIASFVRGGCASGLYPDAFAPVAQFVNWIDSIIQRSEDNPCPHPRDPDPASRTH

[29] = molecular target: P2X purinoceptor 3 (Homo sapiens) (UniProt P56373); experiment: Inhibition of human P2X3 expressed in human 1321N1 cell membranes assessed as reduction in ATP-induced inhibition of [35S]ATPgammaS binding at 1 pm to 10 mM

## CNC(=O)O[C@@H](CC(C)C)c1nc([C@H]2OC(=O)/C=C/C/C(C)=C/[C@@H](O)[C@@H](C)\C=C(C)/C=C(C)\C=C\[C@@H](O)[C@H](C)[C@H](OC)/C(C)=C/C=C/[C@@H]2C)cs1 [ARCHAZOLID B]
[1]
  half-life at 1 µM: 4.6 min
[2]
  solubility kinetic: 1.6 µM (≈ 1.16 µg/mL)
[3]
  inhibition (INH): Active
[4]
  metabolised at 0.25 h, 1 µM: 100%
[5]
  inhibition: inactive
[6]
  metabolised at 0.25 h, 1 µM: 100%
[7]
  half-life at 1 µM: 2.6 min
[8]
  inhibition (INH): Active
[9]
  inhibition (INH): Active
[10]
  inhibition (INH): Active
[11]
  inhibition: inactive
[12]
  microsomal CLint at 1 µM: 301 µL/min/mg
[13]
  metabolised at 0.25 h, 1 µM: 100%
[14]
  IC50: 0.145 nM
[15]
  inhibition (INH): Active
[16]
  inhibition: inactive
[17]
  Ki: 1180 nM
[18]
  inhibition (INH): Active
[19]
  inhibition (INH): Active
[20]
  microsomal CLint at 1 µM: 533 µL/min/mg
[21]
  microsomal CLint at 1 µM: 495 µL/min/mg
[22]
  inhibition (INH): Active
[23]
  permeability: Impermeable
[24]
  inhibition: inactive
[25]
  half-life at 1 µM: 2.8 min
[26]
  IC50: 353 nM
[27]
  inhibition (INH): Active
[28]
  IC50: 316 nM
[29]
  inhibition: inactive
